Laboratory results: ChEMBL document CHEMBL1123518, “Synthesis and biological evaluation of irreversible inhibitors of aldose reductase” (J Med Chem, 1986)

Columns and labels:
[1] = target: Aldo-keto reductase family 1 member B1 (Rattus norvegicus, UniProt P07943); assay: Compound was tested for 50% inhibitory concentration that was required for irreversible inhibition of aldose reductase
[2] = target: Aldo-keto reductase family 1 member B1 (Rattus norvegicus) (UniProt P07943); assay: Compound was tested for % inhibition against RLAR (aldose reductase) at a concentration of 10 micro M.
[3] = target: Aldo-keto reductase family 1 member B1 (Rattus norvegicus) (UniProt P07943); assay: Compound was tested for % inhibition against RLAR (aldose reductase)at a concentration of 10 uM, pre-incubated with 100 uM sorbinil

Row | Structure (SMILES) | IC50 [1] [µM] | inhibition [2] [%] | inhibition [3] [%]
1 | O=C(O)CN1C(=O)c2cccc3cc(N=C=S)cc(c23)C1=O | 0.3 | 57 | 5
2 | COC(=O)CN1C(=O)c2cccc3cc(N=[N+]=[N-])cc(c23)C1=O | 38 |  | 
3 | COC(=O)CN1C(=O)c2cccc3cc(N=C=S)cc(c23)C1=O | 14 |  | 
4 | [N-]=[N+]=Nc1cc2c3c(cccc3c1)C(=O)N(CC(=O)O)C2=O | 3.6 |  | 
5 | S=C=Nc1ccccc1 |  | 34 | 5
